ChEMBL document CHEMBL4219190, “Studies on synthesis of novel pyrido[2,3-d]pyrimidine derivatives, evaluation of their antimicrobial activity and molecular docking” (Bioorg Med Chem Lett, 2018)
Values after ≈ are worked out from the molar mass of the structure shown. Active and inactive are the calls of the source. The calls are words filed in the database; no cut-off is given here.

Experiments:
Candida albicans [1] = experiment: Antifungal activity against Candida albicans MTCC 227 after 24 hrs by well diffusion method; type: functional
Raoultella planticola [2] = experiment: Antibacterial activity against Klebsiella planticola MTCC 530 after 24 hrs by well diffusion method; type: functional
Micrococcus luteus [3] = experiment: Bactericidal activity against Micrococcus luteus MTCC 2470 incubated for 24 hrs followed by transfer of microbial suspension to Mueller Hinton agar plates and measured after 24 hrs post transfer; type: functional
Candida parapsilosis [4] = experiment: Antifungal activity against Candida parapsilosis MTCC 1744 after 24 hrs by well diffusion method; type: functional
Pichia sporocuriosa [5] = experiment: Fungicidal activity against Issatchenkia hanoiensis MTCC 4755 incubated for 24 hrs followed by transfer of microbial suspension to Sabouraud dextrose agar plates and measured after 24 hrs post transfer; type: functional; conditions: MTCC 4755, 24 h
Candida albicans [6] = experiment: Fungicidal activity against Candida albicans MTCC 854 incubated for 24 hrs followed by transfer of microbial suspension to Sabouraud dextrose agar plates and measured after 24 hrs post transfer; type: functional
Candida albicans [7] = experiment: Antifungal activity against Candida albicans MTCC 183 after 24 hrs by well diffusion method; type: functional; conditions: MTCC 183, 24 h
Staphylococcus aureus [8] = experiment: Antibiofilm activity against Staphylococcus aureus MLS16 MTCC 2940 after 24 hrs by crystal violet staining-based assay; type: functional, organism-based
Nakaseomyces glabratus [9] = experiment: Antifungal activity against Candida glabrata MTCC 3019 after 24 hrs by well diffusion method; type: functional; conditions: MTCC 3019, 24 h
Pseudomonas aeruginosa [10] = experiment: Antibacterial activity against Pseudomonas aeruginosa MTCC 2453 after 24 hrs by well diffusion method; type: functional
Candida albicans [11] = experiment: Fungicidal activity against Candida albicans MTCC 4748 incubated for 24 hrs followed by transfer of microbial suspension to Sabouraud dextrose agar plates and measured after 24 hrs post transfer; type: functional; conditions: MTCC 4748, 24 h
Pichia sporocuriosa [12] = experiment: Antifungal activity against Issatchenkia hanoiensis MTCC 4755 after 24 hrs by well diffusion method; type: functional; conditions: MTCC 4755, 24 h
Staphylococcus aureus [13] = experiment: Antibacterial activity against Staphylococcus aureus MLS16 MTCC 2940 after 24 hrs by well diffusion method; type: functional
Staphylococcus aureus [14] = experiment: Antibiofilm activity against Staphylococcus aureus MTCC 96 after 24 hrs by crystal violet staining-based assay; type: functional, organism-based; conditions: Staphylococcus aureus, MTCC 96, 24 h; read-out: IC50
Candida albicans [15] = experiment: Antifungal activity against Candida albicans MTCC 4748 after 24 hrs by well diffusion method; type: functional; conditions: MTCC 4748, 24 h
Candida albicans [16] = experiment: Fungicidal activity against Candida albicans MTCC 227 incubated for 24 hrs followed by transfer of microbial suspension to Sabouraud dextrose agar plates and measured after 24 hrs post transfer; type: functional
Candida albicans [17] = experiment: Fungicidal activity against Candida albicans MTCC 3017 incubated for 24 hrs followed by transfer of microbial suspension to Sabouraud dextrose agar plates and measured after 24 hrs post transfer; type: functional; conditions: MTCC 3017, 24 h
Candida parapsilosis [18] = experiment: Fungicidal activity against Candida parapsilosis MTCC 1744 incubated for 24 hrs followed by transfer of microbial suspension to Sabouraud dextrose agar plates and measured after 24 hrs post transfer; type: functional
Candida albicans [19] = experiment: Antifungal activity against Candida albicans MTCC 3017 after 24 hrs by well diffusion method; type: functional; conditions: MTCC 3017, 24 h
Candida albicans [20] = experiment: Fungicidal activity against Candida albicans MTCC 183 incubated for 24 hrs followed by transfer of microbial suspension to Sabouraud dextrose agar plates and measured after 24 hrs post transfer; type: functional; conditions: MTCC 183, 24 h
Pseudomonas aeruginosa [21] = experiment: Antibiofilm activity against Pseudomonas aeruginosa MTCC 2453 after 24 hrs by crystal violet staining-based assay; type: functional, organism-based
Candida albicans [22] = experiment: Antifungal activity against Candida albicans MTCC 7315 after 24 hrs by well diffusion method; type: functional; conditions: MTCC 7315, 24 h
Escherichia coli [23] = experiment: Antibacterial activity against Escherichia coli MTCC 739 after 24 hrs by well diffusion method; type: functional
Candida albicans [24] = experiment: Antifungal activity against Candida albicans MTCC 854 after 24 hrs by well diffusion method; type: functional
Micrococcus luteus [25] = experiment: Antibacterial activity against Micrococcus luteus MTCC 2470 after 24 hrs by well diffusion method; type: functional
Raoultella planticola [26] = experiment: Bactericidal activity against Klebsiella planticola MTCC 530 incubated for 24 hrs followed by transfer of microbial suspension to Mueller Hinton agar plates and measured after 24 hrs post transfer; type: functional
Candida albicans [27] = experiment: Fungicidal activity against Candida albicans MTCC 1637 incubated for 24 hrs followed by transfer of microbial suspension to Sabouraud dextrose agar plates and measured after 24 hrs post transfer; type: functional
Bacillus subtilis [28] = experiment: Bactericidal activity against Bacillus subtilis MTCC 121 incubated for 24 hrs followed by transfer of microbial suspension to Mueller Hinton agar plates and measured after 24 hrs post transfer; type: functional
Escherichia coli [29] = experiment: Bactericidal activity against Escherichia coli MTCC 739 incubated for 24 hrs followed by transfer of microbial suspension to Mueller Hinton agar plates and measured after 24 hrs post transfer; type: functional
Pseudomonas aeruginosa [30] = experiment: Bactericidal activity against Pseudomonas aeruginosa MTCC 2453 incubated for 24 hrs followed by transfer of microbial suspension to Mueller Hinton agar plates and measured after 24 hrs post transfer; type: functional
Raoultella planticola [31] = experiment: Antibiofilm activity against Klebsiella planticola MTCC 530 after 24 hrs by crystal violet staining-based assay; type: functional, organism-based
Staphylococcus aureus [32] = experiment: Bactericidal activity against Staphylococcus aureus MTCC 96 incubated for 24 hrs followed by transfer of microbial suspension to Mueller Hinton agar plates and measured after 24 hrs post transfer; type: functional; conditions: MTCC 96, 24 h
Pichia kudriavzevii [33] = experiment: Antifungal activity against Candida krusei MTCC 3020 after 24 hrs by well diffusion method; type: functional; conditions: MTCC 3020, 24 h
Bacillus subtilis [34] = experiment: Antibiofilm activity against Bacillus subtilis MTCC 121 after 24 hrs by crystal violet staining-based assay; type: functional, organism-based
Staphylococcus aureus [35] = experiment: Antibacterial activity against Staphylococcus aureus MTCC 96 after 24 hrs by well diffusion method; type: functional; conditions: MTCC 96, 24 h
Staphylococcus aureus [36] = experiment: Bactericidal activity against Staphylococcus aureus MLS16 MTCC 2940 incubated for 24 hrs followed by transfer of microbial suspension to Mueller Hinton agar plates and measured after 24 hrs post transfer; type: functional
Candida albicans [37] = experiment: Fungicidal activity against Candida albicans MTCC 3018 incubated for 24 hrs followed by transfer of microbial suspension to Sabouraud dextrose agar plates and measured after 24 hrs post transfer; type: functional; conditions: MTCC 3018, 24 h
Candida albicans [38] = experiment: Antifungal activity against Candida albicans MTCC 1637 after 24 hrs by well diffusion method; type: functional
[Candida] aaseri [39] = Fungicidal activity against Candida aaseri MTCC 1962 incubated for 24 hrs followed by transfer of microbial suspension to Sabouraud dextrose agar plates and measured after 24 hrs post transfer; type: functional; conditions: Yamadazyma aaseri, MTCC 1962, 24 h
Candida albicans [40] = experiment: Fungicidal activity against Candida albicans MTCC 3958 incubated for 24 hrs followed by transfer of microbial suspension to Sabouraud dextrose agar plates and measured after 24 hrs post transfer; type: functional; conditions: MTCC 3958, 24 h
Pichia kudriavzevii [41] = experiment: Fungicidal activity against Candida krusei MTCC 3020 incubated for 24 hrs followed by transfer of microbial suspension to Sabouraud dextrose agar plates and measured after 24 hrs post transfer; type: functional; conditions: MTCC 3020, 24 h
Bacillus subtilis [42] = experiment: Antibacterial activity against Bacillus subtilis MTCC 121 after 24 hrs by well diffusion method; type: functional
Nakaseomyces glabratus [43] = experiment: Fungicidal activity against Candida glabrata MTCC 3019 incubated for 24 hrs followed by transfer of microbial suspension to Sabouraud dextrose agar plates and measured after 24 hrs post transfer; type: functional; conditions: MTCC 3019, 24 h
[Candida] aaseri [44] = Antifungal activity against Candida aaseri MTCC 1962 after 24 hrs by well diffusion method; type: functional; conditions: Yamadazyma aaseri, MTCC 1962, 24 h
Candida albicans [45] = experiment: Antifungal activity against Candida albicans MTCC 3958 after 24 hrs by well diffusion method; type: functional; conditions: MTCC 3958, 24 h
Candida albicans [46] = experiment: Antifungal activity against Candida albicans MTCC 3018 after 24 hrs by well diffusion method; type: functional; conditions: MTCC 3018, 24 h
Candida albicans [47] = experiment: Fungicidal activity against Candida albicans MTCC 7315 incubated for 24 hrs followed by transfer of microbial suspension to Sabouraud dextrose agar plates and measured after 24 hrs post transfer; type: functional; conditions: MTCC 7315, 24 h

## O=C(NCCO)c1nc(-c2ccccc2)c2c(C(F)(F)F)cc(-c3ccccc3)nc2n1
Candida albicans [1]
  MIC: inactive
Raoultella planticola [2]
  MIC: inactive
Micrococcus luteus [3]
  MBC: inactive
Candida parapsilosis [4]
  MIC: inactive
Pichia sporocuriosa [5]
  MFC: 15.6 µg/mL (≈ 35.6 µM)
Candida albicans [6]
  MFC: inactive
Candida albicans [7]
  MIC: 31.2 µg/mL (≈ 71.2 µM)
Staphylococcus aureus [8]
  IC50: Not Active
Nakaseomyces glabratus [9]
  MIC: 15.6 µg/mL (≈ 35.6 µM)
Pseudomonas aeruginosa [10]
  MIC: inactive
Candida albicans [11]
  MFC: 62.5 µg/mL (≈ 143 µM)
Pichia sporocuriosa [12]
  MIC: 15.6 µg/mL (≈ 35.6 µM)
Staphylococcus aureus [13]
  MIC: inactive
Staphylococcus aureus [14]
  IC50: 21.6 µg/mL (≈ 49.3 µM)
Candida albicans [15]
  MIC: 62.5 µg/mL (≈ 143 µM)
Candida albicans [16]
  MFC: inactive
Candida albicans [17]
  MFC: 62.5 µg/mL (≈ 143 µM)
Candida parapsilosis [18]
  MFC: inactive
Candida albicans [19]
  MIC: 31.2 µg/mL (≈ 71.2 µM)
Candida albicans [20]
  MFC: 62.5 µg/mL (≈ 143 µM)
Pseudomonas aeruginosa [21]
  IC50: Not Active
Candida albicans [22]
  MIC: 31.2 µg/mL (≈ 71.2 µM)
Escherichia coli [23]
  MIC: inactive
Candida albicans [24]
  MIC: inactive
Micrococcus luteus [25]
  MIC: inactive
Raoultella planticola [26]
  MBC: inactive
Candida albicans [27]
  MFC: inactive
Bacillus subtilis [28]
  MBC: inactive
Escherichia coli [29]
  MBC: inactive
Pseudomonas aeruginosa [30]
  MBC: inactive
Raoultella planticola [31]
  IC50: Not Active
Staphylococcus aureus [32]
  MBC: 62.4 µg/mL (≈ 142 µM)
Pichia kudriavzevii [33]
  MIC: 31.2 µg/mL (≈ 71.2 µM)
Bacillus subtilis [34]
  IC50: Not Active
Staphylococcus aureus [35]
  MIC: 31.2 µg/mL (≈ 71.2 µM)
Staphylococcus aureus [36]
  MBC: inactive
Candida albicans [37]
  MFC: 31.2 µg/mL (≈ 71.2 µM)
Candida albicans [38]
  MIC: inactive
[Candida] aaseri [39]
  MFC: 31.2 µg/mL (≈ 71.2 µM)
Candida albicans [40]
  MFC: 62.5 µg/mL (≈ 143 µM)
Pichia kudriavzevii [41]
  MFC: 62.5 µg/mL (≈ 143 µM)
Bacillus subtilis [42]
  MIC: inactive
Nakaseomyces glabratus [43]
  MFC: 31.2 µg/mL (≈ 71.2 µM)
[Candida] aaseri [44]
  MIC: 31.2 µg/mL (≈ 71.2 µM)
Candida albicans [45]
  MIC: 31.2 µg/mL (≈ 71.2 µM)
Candida albicans [46]
  MIC: 15.6 µg/mL (≈ 35.6 µM)
Candida albicans [47]
  MFC: 62.5 µg/mL (≈ 143 µM)
